Patent publication EP4691489A1, “GROWTH HORMONE SECRETION PROMOTER” (Scohia Pharma, Inc., priority 2023, dated 2024)

Key:
SSTR 1 = molecular target: T1, SSTR 1 (Homo sapiens, UniProt P30872); experiment: radiolabeled ligand binding assay, selectivity for human SSTR subtype; details: CHO-K1 membrane fraction, [125I] Tyr11-somatostatin 14, 1 µM compound
T1 construct: expressed in transfected cells; host or cells: CHO-K1 cells (membrane fraction)
Method: (§1) The selectivity of test compounds for human SSTR subtypes was investigated by radiolabeled ligand binding assay. The membrane fraction of CHO-K1 cells expressing human SSTR1-5 was suspended in am assay buffer (25 mM HEPES (pH 7.4), 5 mM MgCl2, 1 mM CaCl2, 10 µg/mL saponin, 0.5% fatty-acid free BSA) and incubated for 1 hr in the presence of 1 µM test compound 1 and [^125I] Tyr^11-somatostatin 14 (Perkin Elmer). Thereafter, the solution containing the membrane fraction was transferred onto a filter plate, and after washing the filter six times with a wash buffer (25 mM HEPES, 5 mM MgCl2, 1 mM CaCl2), 50 µL of Microscint 20 (Packard) was added, and the radioactivity was measured using a TopCount (Perkin Elmer). The results of competitive activity of the test compound against the binding of the human SSTR subtypes with the labeled ligands are shown in Table 2.

SSTR 2 = molecular target: T2, SSTR 2 (Homo sapiens, UniProt P30874); experiment: as above; details: CHO-K1 membrane fraction, [125I] Tyr11-somatostatin 14, 1 µM compound
T2 construct: expressed in transfected cells; host or cells: CHO-K1 cells (membrane fraction)
Method: as §1

SSTR 3 = molecular target: T3, SSTR 3 (Homo sapiens, UniProt P32745); experiment: as above; details: CHO-K1 membrane fraction, [125I] Tyr11-somatostatin 14, 1 µM compound
T3 construct: expressed in transfected cells; host or cells: CHO-K1 cells (membrane fraction)
Method: as §1

SSTR 4 = molecular target: T4, SSTR 4 (Homo sapiens, UniProt P31391); experiment: as above; details: CHO-K1 membrane fraction, [125I] Tyr11-somatostatin 14, 1 µM compound
T4 construct: expressed in transfected cells; host or cells: CHO-K1 cells (membrane fraction)
Method: as §1

[1] = system: healthy Japanese adult men; experiment: Phase 1 single dose study, blood anterior pituitary hormone concentrations (ELISA); format: in vivo; details: human
Method: The examples in this section show the measurement results of blood anterior pituitary hormone concentrations using blood samples from a dose escalation study targeting healthy Japanese adult men, from A Randomized, Double-Blind, Placebo-Controlled, Phase 1 Study (jRCT2051210027) targeting healthy adults, which was conducted to examine the safety and tolerability, pharmacokinetics, and pharmacodynamic action of a single administration of test compound 1.
In a randomized, double-blind, placebo-controlled, parallel-group comparison, dose-escalation study consisting of 7 cohorts, a single dose of test compound 1 (1, 3, 10, 20, 40, 80 and 160 mg) or placebo was orally administered under fasting conditions. Eight test subjects (6 in the active drug group and 2 in the placebo group) participated in each cohort. The concomitant use of all medications was prohibited from 28 days before hospitalization until discharge.
The test subjects were inspected and examined within 28-2 days and 1 day before administration of test compound 1, and eligibility was confirmed based on the above-mentioned inclusion criteria and exclusion criteria. […] They were fasted for 10 hr before administration and 4 hr after administration until lunch, and took lunch at 13:00 p.m. The blood was collected 0.5 hr before and 1, 2, 4, 6, 8, and 10 hr after administration of test compound 1.
The concentration of anterior pituitary hormone was measured using blood from the placebo administration group of all cohorts and the test subjects who received administration of 1 mg or 10 mg of test compound 1, at 0.5 hr before administration and 2, 4, 6, 8, and 10 hr after administration. The concentrations of growth hormone, follicle-stimulating hormone, luteinizing hormone, thyroid-stimulating hormone, adrenocorticotropic hormone, and prolactin in blood were measured using the Human Growth Hormone Quantikine ELISA Kit (manufactured by R&D Systems), Follicle-Stimulating Hormone (Human) ELISA Kit (manufactured by Cayman Chemical), Luteinizing Hormome (Human) ELISA Kit (manufactured by Cayman Chemical), U-TSH ELISA (manufactured by BIOCHECK), ACTH ELISA Kit (manufactured by MB Biosciences GmbH), and Human Prolactin Quantikine ELISA Kit (manufactured by R&D Systems) according to the protocol described in the package insert of each kit.

SSTR 5 [2] = molecular target: T5, SSTR 5 (Homo sapiens, UniProt P35346); experiment: human SSTR5 antagonist activity using intracellular cAMP concentration as an indicator (HTRF); format: cell-based; design: expressed in transfected cells; details: 1 µM test compound; CHO (dhfr-) cells expressing human SSTR5; 0.1 nM somatostatin 28, 0.3 µM forskolin; read-out: inhibitory rate (%) against SSTR5 at 1 µM
Method: The intracellular cAMP concentration was measured using HTRF cAMP dynamic 2 kit (Cisbio). A test compound diluted with an assay buffer (5 mM HEPES (pH 7.5) (Invitrogen), 0.1% fatty-acid free BSA (Sigma), and 500 µM IBMX (Wako)-containing HBSS (Invitrogen)) was added at 2 µL/well to a 384-well white plate (Greiner) to a final concentration of 1 µM. Frozen stock of CHO (dhfr-) cells stably expressing the human SSTR5 gene (Accession No. NM_001053) was thawed in a thermostatic tank at 37°C and suspended in a passage medium (MEM alpha (Wako)) containing 10% dialyzed serum (Gemini) and 50 µg/mL gentamicin (Invitrogen). The cell suspension was centrifuged, and the cells were resuspended in an assay buffer, and added by 2 µL to each well at about 4,000 cells/well. The compound and the cells were incubated for 15 min, an assay buffer containing a final concentration 0.1 nM of somatostatin 28 (Toray Research Center) and 0.3 µM forskolin (Wako) was added by 2 µL/well, and the cells were incubated at room temperature for 30 min. cAMP-d2 and anti-cAMP-cryptate were each added by 3 µL/well, allowed to stand at room temperature for 60 min, and the fluorescence resonance energy transfer (FRET) intensity was measured using the Multi-label reader Envision (Perkin Elmer). The FRET intensity of the wells to which the test compound group was added was converted into cAMP concentration by using a calibration curve created from the FRET intensities of well groups in which cAMP at any concentration was added to the assay buffer. The inhibitory activity of the compound was calculated using the following formula. Inhibitory activity(%) = (C−B)/(A−B) × 100 [formula] • A: cAMP concentration calculated from wells containing 0.3 µM forskolin • B: cAMP concentration calculated from wells containing 0.3 µM forskolin, 0.1 nM somatostatin 28 • C: cAMP concentration of wells containing 0.3 µM forskolin, 0.1 nM somatostatin 28, and 1 µM test compound

SSTR 5 [3] = molecular target: T5, SSTR 5; experiment: radiolabeled ligand binding assay, selectivity for human SSTR subtype; design: expressed in transfected cells; host or cells: CHO-K1 cells (membrane fraction)
Method: as §1

T5 sequence (P35346 whole entry): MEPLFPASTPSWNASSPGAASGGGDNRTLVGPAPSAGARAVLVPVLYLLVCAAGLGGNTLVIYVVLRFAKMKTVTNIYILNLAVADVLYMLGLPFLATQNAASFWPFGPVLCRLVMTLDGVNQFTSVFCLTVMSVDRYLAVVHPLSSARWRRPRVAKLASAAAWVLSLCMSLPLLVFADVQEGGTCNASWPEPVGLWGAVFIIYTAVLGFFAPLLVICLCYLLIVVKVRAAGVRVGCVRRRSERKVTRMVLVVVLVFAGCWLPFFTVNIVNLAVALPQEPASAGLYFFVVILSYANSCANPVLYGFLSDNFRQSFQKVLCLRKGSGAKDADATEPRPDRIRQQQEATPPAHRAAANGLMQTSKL
T1 sequence (P30872 whole entry): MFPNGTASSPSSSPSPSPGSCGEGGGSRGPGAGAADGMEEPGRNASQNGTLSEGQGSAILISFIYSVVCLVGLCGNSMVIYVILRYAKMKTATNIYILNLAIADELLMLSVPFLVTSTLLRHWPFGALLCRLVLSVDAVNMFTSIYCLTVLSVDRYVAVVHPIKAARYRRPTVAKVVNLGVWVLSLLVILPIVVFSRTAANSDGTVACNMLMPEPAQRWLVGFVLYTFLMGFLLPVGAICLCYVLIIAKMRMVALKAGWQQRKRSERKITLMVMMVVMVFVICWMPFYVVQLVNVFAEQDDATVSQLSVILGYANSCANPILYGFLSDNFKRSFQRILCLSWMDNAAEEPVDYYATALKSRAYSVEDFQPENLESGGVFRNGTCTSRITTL
T3 sequence (P32745 whole entry): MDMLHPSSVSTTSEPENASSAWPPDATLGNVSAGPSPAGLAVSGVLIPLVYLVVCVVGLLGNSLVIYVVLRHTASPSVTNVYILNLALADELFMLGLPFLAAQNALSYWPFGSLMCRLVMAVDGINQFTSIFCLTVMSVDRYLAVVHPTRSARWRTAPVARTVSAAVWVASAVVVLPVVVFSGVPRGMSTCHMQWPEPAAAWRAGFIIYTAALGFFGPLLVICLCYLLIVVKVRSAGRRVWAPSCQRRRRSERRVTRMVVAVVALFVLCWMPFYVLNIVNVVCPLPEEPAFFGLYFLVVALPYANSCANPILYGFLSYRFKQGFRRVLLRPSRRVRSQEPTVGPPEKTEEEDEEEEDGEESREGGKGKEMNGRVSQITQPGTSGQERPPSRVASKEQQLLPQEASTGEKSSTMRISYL
T4 sequence (P31391 whole entry): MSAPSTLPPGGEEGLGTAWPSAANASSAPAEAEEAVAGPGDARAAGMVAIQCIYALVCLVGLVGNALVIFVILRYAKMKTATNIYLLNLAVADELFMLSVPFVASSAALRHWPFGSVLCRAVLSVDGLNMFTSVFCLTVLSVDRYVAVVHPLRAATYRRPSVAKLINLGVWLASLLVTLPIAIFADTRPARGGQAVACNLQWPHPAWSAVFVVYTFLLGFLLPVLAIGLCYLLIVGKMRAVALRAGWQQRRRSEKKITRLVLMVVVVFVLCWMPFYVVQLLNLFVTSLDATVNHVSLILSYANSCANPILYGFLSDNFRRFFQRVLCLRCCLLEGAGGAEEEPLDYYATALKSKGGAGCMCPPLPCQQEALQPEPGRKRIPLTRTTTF
T2 sequence (P30874 whole entry): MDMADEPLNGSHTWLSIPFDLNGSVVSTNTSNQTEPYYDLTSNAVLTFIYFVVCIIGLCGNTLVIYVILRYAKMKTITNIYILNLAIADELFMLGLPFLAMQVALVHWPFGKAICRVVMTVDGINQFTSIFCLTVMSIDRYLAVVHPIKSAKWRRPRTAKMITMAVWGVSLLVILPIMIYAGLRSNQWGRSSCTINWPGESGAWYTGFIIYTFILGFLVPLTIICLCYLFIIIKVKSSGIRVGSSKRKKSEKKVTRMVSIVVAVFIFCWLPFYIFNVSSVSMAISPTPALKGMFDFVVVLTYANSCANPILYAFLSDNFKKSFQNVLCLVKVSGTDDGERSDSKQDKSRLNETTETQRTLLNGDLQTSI

With CCCc1nc2c(cc1C(=O)O)C(=O)N(C1CCN(Cc3cc(C4CC4)c(-c4ccc(F)cc4)cc3OCC)CC1)CC2 [test compound 1, 6-(1-((2-cyclopropyl-5-ethoxy-4'-fluorobiphenyl-4-yl)methyl)piperidin-4-yl)-5-oxo-2-propyl-5,6,7,8-tetrahydro-1,6-naphthyridine-3-carboxylic acid] the “labeled ligand binding rate (%) at 1 µM” value (SSTR 1) was 105.83%, the “labeled ligand binding rate (%) at 1 µM” value (SSTR 2) was 100.31% and the “labeled ligand binding rate (%) at 1 µM” value (SSTR 3) was 99.22%. The “labeled ligand binding rate (%) at 1 µM” value (SSTR 4) was 109.00%, the “growth hormone secretion (blood growth hormone concentration)” value ([1]; single oral dose 1 mg and 10 mg, fasting, up to 10 hr after administration, Fig. 1) was “clearly enhance growth hormone secretion” and the “secretion of follicle-stimulating hormone” value ([1]; single oral dose 1 mg and 10 mg, fasting, Fig. 2) was “did not substantially affect the secretion”. The “secretion of luteinizing hormone” value ([1]; single oral dose 1 mg and 10 mg, fasting, Fig. 3) was “did not substantially affect the secretion”, the “secretion of thyroid-stimulating hormone” value ([1]; single oral dose 1 mg and 10 mg, fasting, Fig. 4) was “did not substantially affect the secretion” and the “secretion of adrenocorticotropic hormone” value ([1]; single oral dose 1 mg and 10 mg, fasting, Fig. 5) was “did not substantially affect the secretion”. For the same molecule, the secretion of prolactin ([1]; single oral dose 1 mg and 10 mg, fasting, Fig. 6) was “did not substantially affect the secretion”, the “increase in blood growth hormone concentration compared with growth hormone replacement therapy” value ([1]; compared with literature values for patients with pediatric growth hormone deficiency (J Clin Endocrinol Metab. 2017)) was “corresponds to the blood growth hormone concentration obtained by growth hormone replacement therapy” and the inhibition at 1 µM (SSTR 5 [2]) was 87%. The “labeled ligand binding rate (%) at 1 µM” value (SSTR 5 [3]; SSTR 5, CHO-K1 membrane fraction, [125I] Tyr11-somatostatin 14, 1 µM compound) was 4.51% and the “selectivity among the human SSTR subtypes” value (SSTR 5 [3]; conclusion from Table 2, 1 µM) was “selectively binds to SSTR5”.
With CCCc1nc2c(cc1C(=O)O)C(=O)N(C1CCN(Cc3cc(C4CC4)c(-c4ccc(F)cc4)c(F)c3OCC)CC1)CC2 [test compound 2, 6-(1-((6-cyclopropyl-3-ethoxy-2,4'-difluorobiphenyl-4-yl)methyl)piperidin-4-yl)-5-oxo-2-propyl-5,6,7,8-tetrahydro-1,6-naphthyridine-3-carboxylic acid] the inhibition at 1 µM (SSTR 5 [2]) was 85%.
In the case of CCCc1nc2c(cc1C(=O)O)C(=O)N(C1CCN(Cc3cc(C4CC4)c(-c4ccc(F)cc4F)cc3OCC)CC1)CC2 [test compound 3, 6-(1-((2-cyclopropyl-5-ethoxy-2',4'-difluorobiphenyl-4-yl)methyl)piperidin-4-yl)-5-oxo-2-propyl-5,6,7,8-tetrahydro-1,6-naphthyridine-3-carboxylic acid], the inhibition at 1 µM (SSTR 5 [2]) is reported as 125%.
Work on CCOc1c(CN2CCC(N3CCc4nc(CC)c(C(=O)O)cc4C3=O)CC2)cc(C2CC2)c(-c2ccc(F)cc2)c1F [test compound 4, 6-(1-((6-cyclopropyl-3-ethoxy-2,4'-difluorobiphenyl-4-yl)methyl)piperidin-4-yl)-2-ethyl-5-oxo-5,6,7,8-tetrahydro-1,6-naphthyridine-3-carboxylic acid] yielded an inhibition at 1 µM (SSTR 5 [2]) of 95%.
With CCOc1c(CN2CCC(n3ccc(C(=O)O)c(CC)c3=O)CC2)cc(C2CC2)c(-c2ccc(F)cc2)c1F [test compound 5, 1-(1-((6-cyclopropyl-3-ethoxy-2,4'-difluorobiphenyl-4-yl)methyl)piperidin-4-yl)-3-ethyl-2-oxo-1,2-dihydropyridine-4-carboxylic acid] the inhibition at 1 µM (SSTR 5 [2]) was 87%.
Molecule Cc1c(C(=O)O)ccn(C2CCN(Cc3cc(C4CC4)c(-c4ccc(F)cc4)c(F)c3OC(C)C)CC2)c1=O [test compound 6, 1-(1-((6-cyclopropyl-2,4'-difluoro-3-isopropoxybiphenyl-4-yl)methyl)piperidin-4-yl)-3-methyl-2-oxo-1,2-dihydropyridine-4-carboxylic acid] has an inhibition at 1 µM (SSTR 5 [2]) of 99%.
CCOc1c(CN2CCC(n3ccc(C(=O)O)c(C)c3=O)CC2)cc(C2CC2)c(-c2ccc(F)cc2)c1F [test compound 7, 1-(1-((6-cyclopropyl-3-ethoxy-2,4'-difluorobiphenyl-4-yl)methyl)piperidin-4-yl)-3-methyl-2-oxo-1,2-dihydropyridine-4-carboxylic acid] was tested, and the inhibition at 1 µM (SSTR 5 [2]) was 87%.
